Experimental data reported in patent publication US10201517B2, “Brimonidine gel compositions and methods of use” (Galderma Laboratories, L.P., priority 2010, dated 2019).

Assay: Microscopic observation of gel compositions for methylparaben crystalline particles
Type: physicochemical
Description: Microscopic observations were performed on additional representative batches of brimonidine topical gel compositions and placebo gel compositions containing 1.25% (w/w) carbomer, POBM and other ingredients. The observations have been done on one tube of each batch, with the microscope Axiolab DRBKT Zeiss no. 023733.01 with a camera ICC Zeiss or the microscope Olympus BX60. The microscopic observations were done at 5° C. and room temperature.
Numerous formulations with different ingredients and varying concentrations of the ingredients were made and tested for the presence of the paraben crystals by microscopic observations. The microbiological quality of the formulations was also analyzed by using acceptance-test criteria in preservative-efficacy testing (PET) in the United States Pharmacopeia (USP) and the European Pharmacopoeia (EP).

Row | recrystallization in formulation (addition of 0.1% of EDTA, POBM at 0.3% (w/w)) | Compound | crystalline particles in formulation (methylparaben replaced with Na POBM at 0.3% (w/w))
1 | – | COC(=O)c1ccc([O-])cc1.[Na+] [Na POBM] | crystalline particles of Na POBM were still observed
2 | immediate recrystallization | COC(=O)c1ccc(O)cc1 [methylparaben, methyl parahydroxybenzoate] | –
